Laboratory results reported in ChEMBL document CHEMBL4406892 (Bioorg Med Chem Lett, 2019).
Activity calls are given as the source filed them. No cut-off for these calls is given here.

Legend:
[1] = molecular target: Urokinase-type plasminogen activator (Homo sapiens, UniProt P00749)
Description: Inhibition of human kidney uPA using fluorogenic Z-Pyr-Gly-Arg-MCA as substrate measured after 15 mins by fluorometric analysis

Plasma kallikrein = Plasma kallikrein (Homo sapiens, UniProt P03952)
Description: Inhibition of human plasma kallikrein using chromogenic L-pyroGlu-L-Pro-L-Arg-p-nitroaniline as substrate

Coagulation factor XI = Coagulation factor XI (Homo sapiens, UniProt P03951); experiment: Inhibition of factor 11a (unknown origin) using chromogenic L-pyroGlu-L-Pro-L-Arg-p-nitroaniline as substrate
Chain of Coagulation factor XI (P03951 19-387 limits assumed): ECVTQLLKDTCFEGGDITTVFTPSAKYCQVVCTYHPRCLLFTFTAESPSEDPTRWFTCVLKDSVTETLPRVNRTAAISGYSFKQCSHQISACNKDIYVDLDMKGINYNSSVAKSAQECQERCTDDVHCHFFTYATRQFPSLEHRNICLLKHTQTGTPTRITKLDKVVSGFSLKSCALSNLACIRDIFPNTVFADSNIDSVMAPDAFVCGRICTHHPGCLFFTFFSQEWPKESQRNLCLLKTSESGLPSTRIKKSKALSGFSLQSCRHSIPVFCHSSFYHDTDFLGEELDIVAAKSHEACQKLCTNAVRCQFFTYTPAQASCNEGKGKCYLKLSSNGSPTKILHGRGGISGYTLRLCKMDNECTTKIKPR
Chain of Coagulation factor XI (P03951 388-625 limits assumed): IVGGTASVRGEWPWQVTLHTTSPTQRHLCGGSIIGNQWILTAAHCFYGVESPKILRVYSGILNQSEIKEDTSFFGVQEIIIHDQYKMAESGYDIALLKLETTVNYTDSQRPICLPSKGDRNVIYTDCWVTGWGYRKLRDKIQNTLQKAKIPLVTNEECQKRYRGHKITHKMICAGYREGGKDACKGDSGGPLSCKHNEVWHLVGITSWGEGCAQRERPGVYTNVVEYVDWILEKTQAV

Prothrombin = Prothrombin (Homo sapiens, UniProt P00734); experiment: Inhibition of thrombin (unknown origin) using chromogenic H-D-Ile-[…]-L-arginine-p-nitroaniline as substrate
[2] = molecular target: Vitamin K-dependent protein C (Homo sapiens, UniProt P04070); experiment: Inhibition of activated protein C (unknown origin) using chromogenic L-pyroGlu-L-Pro-L-Arg-p-nitroaniline as substrate
Chain of Vitamin K-dependent protein C (P04070 43-197 limits assumed): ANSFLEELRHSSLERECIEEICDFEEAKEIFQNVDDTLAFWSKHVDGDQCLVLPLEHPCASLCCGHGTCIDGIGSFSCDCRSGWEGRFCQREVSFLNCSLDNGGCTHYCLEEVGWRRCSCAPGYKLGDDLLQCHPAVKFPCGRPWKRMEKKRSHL
Chain of Vitamin K-dependent protein C (P04070 212-461 limits assumed): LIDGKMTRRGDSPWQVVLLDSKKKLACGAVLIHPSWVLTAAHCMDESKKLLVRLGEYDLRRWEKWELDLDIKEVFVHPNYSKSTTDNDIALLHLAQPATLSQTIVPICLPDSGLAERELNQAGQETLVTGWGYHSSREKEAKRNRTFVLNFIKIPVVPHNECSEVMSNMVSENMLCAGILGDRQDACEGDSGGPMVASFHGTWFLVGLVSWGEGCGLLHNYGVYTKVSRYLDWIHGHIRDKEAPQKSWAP

[3] = molecular target: Tissue-type plasminogen activator (Homo sapiens, UniProt P00750)
Chain of Tissue-type plasminogen activator (P00750 whole entry): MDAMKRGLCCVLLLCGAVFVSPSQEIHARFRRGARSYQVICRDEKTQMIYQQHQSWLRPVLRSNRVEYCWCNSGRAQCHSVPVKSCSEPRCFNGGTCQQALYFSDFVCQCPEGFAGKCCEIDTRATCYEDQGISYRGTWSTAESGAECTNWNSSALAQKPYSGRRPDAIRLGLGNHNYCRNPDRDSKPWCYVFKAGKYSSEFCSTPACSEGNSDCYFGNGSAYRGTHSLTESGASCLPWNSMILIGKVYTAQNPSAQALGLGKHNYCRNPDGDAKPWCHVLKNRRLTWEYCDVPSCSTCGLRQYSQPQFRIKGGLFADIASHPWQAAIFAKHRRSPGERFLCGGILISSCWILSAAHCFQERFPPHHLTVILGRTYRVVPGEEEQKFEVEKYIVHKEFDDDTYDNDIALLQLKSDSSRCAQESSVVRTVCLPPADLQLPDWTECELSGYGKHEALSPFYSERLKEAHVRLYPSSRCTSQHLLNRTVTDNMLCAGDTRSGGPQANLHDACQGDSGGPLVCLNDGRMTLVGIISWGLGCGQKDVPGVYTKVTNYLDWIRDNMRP
Description: Inhibition of tissue-type plasminogen activator (unknown origin) using chromogenic H-D-Ile-L-propyl-L-arginine-p-nitroaniline as substrate

Coagulation factor X = Coagulation factor X (Homo sapiens, UniProt P00742); experiment: Inhibition of factor Xa (unknown origin)
Chain of Coagulation factor X (P00742 41-179 limits assumed): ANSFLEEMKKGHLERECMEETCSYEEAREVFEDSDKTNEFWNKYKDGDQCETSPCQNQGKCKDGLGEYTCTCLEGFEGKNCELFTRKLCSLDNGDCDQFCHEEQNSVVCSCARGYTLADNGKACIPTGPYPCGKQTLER
Chain of Coagulation factor X (P00742 235-488 limits assumed): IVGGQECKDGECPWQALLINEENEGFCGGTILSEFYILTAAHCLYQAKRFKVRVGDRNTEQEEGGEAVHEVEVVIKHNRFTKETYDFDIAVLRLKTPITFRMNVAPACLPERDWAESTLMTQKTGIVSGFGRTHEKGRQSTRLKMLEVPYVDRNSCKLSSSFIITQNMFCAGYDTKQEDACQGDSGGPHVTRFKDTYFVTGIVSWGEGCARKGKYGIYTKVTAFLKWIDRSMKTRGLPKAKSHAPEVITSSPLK

HT-1080 = experiment: Antimetastatic activity against luciferase-tagged human HT1080 cells xenografted in NSG mouse assessed as reduction in lung burden at 7.5 mg/kg/day, ip for 21 days by luciferase assay; format: functional, organism-based
Trypsin = Trypsin (Homo sapiens, UniProt P07477+P07478+P35030); experiment: Inhibition of trypsin (unknown origin) using chromogenic H-D-Ile-[…]-L-arginine-p-nitroaniline as substrate; format: protein assay
Plasminogen = Plasminogen (Homo sapiens, UniProt P00747); experiment: Inhibition of plasmin (unknown origin) using chromogenic H-D-Ile-[…]-L-arginine-p-nitroaniline as substrate
Chain of Plasminogen (P00747 97-580 limits assumed): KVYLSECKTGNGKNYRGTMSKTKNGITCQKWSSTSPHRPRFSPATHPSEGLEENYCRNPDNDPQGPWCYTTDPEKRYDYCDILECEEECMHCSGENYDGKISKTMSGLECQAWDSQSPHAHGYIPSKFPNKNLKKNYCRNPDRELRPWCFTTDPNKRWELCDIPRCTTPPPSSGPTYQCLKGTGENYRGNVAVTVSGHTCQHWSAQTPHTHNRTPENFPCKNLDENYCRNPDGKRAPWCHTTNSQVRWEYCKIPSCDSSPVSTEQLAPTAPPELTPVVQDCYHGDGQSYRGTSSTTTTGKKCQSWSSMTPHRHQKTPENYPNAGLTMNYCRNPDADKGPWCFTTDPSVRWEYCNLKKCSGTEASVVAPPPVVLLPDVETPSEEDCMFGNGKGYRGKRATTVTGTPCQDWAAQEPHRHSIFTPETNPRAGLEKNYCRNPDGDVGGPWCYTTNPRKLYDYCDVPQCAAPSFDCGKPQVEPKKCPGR
Chain of Plasminogen (P00747 581-810 limits assumed): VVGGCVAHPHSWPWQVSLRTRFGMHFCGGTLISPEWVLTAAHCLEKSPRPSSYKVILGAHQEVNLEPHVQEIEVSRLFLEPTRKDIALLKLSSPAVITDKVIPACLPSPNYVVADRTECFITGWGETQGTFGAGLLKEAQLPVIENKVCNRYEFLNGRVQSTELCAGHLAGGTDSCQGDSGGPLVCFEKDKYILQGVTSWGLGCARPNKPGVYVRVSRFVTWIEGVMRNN

Rattus norvegicus [4] = experiment: Diuretic activity in Sprague-Dawley rat model of acetazolamide-induced diuresis assessed as increase in urine volume at 1.5 mg/kg, ip pretreated with acetazolamide followed by compound treatment measured after 6 hrs; format: ADME, organism-based; conditions: in vivo
Rattus norvegicus [5] = experiment: Diuretic activity in Sprague-Dawley rat model of acetazolamide-induced diuresis assessed as increase in sodium excretion at 1.5 mg/kg, ip pretreated with acetazolamide followed by compound treatment measured after 6 hrs; format: ADME, organism-based; conditions: in vivo
Rattus norvegicus [6] = experiment: Antikaliuretic activity in Sprague-Dawley rat model of acetazolamide-induced diuresis assessed as decrease in potassium secretion at 1.5 mg/kg, ip pretreated with acetazolamide followed by compound treatment measured after 6 hrs; format: ADME, organism-based; conditions: in vivo

Chain of Plasma kallikrein (P03952 20-390 limits assumed): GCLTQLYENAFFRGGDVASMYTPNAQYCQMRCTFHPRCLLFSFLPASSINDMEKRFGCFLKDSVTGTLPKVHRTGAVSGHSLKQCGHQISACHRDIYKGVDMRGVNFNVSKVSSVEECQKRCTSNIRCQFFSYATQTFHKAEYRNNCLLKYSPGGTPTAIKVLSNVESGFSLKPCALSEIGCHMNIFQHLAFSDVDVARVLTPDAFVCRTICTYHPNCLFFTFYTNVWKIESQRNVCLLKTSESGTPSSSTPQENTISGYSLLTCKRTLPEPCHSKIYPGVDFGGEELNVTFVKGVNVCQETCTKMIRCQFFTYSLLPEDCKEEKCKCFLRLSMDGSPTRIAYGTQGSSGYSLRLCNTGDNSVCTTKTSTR
Chain of Plasma kallikrein (P03952 391-638 limits assumed): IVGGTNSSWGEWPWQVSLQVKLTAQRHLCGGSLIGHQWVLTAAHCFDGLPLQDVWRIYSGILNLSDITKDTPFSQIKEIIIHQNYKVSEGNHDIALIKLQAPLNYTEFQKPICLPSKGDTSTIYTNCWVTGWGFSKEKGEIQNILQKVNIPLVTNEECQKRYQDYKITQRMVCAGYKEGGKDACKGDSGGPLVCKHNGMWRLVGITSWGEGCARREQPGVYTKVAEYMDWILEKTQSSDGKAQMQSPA

| Compound | Ki [1] | also measured |
| --- | --- | --- |
| COc1ccc2cc(-c3nc(C(=O)NC(=N)N)c(N)nc3N)oc2c1 | 439 nM | – |
| CSc1ccc(-c2nc(C(=O)NC(=N)N)c(N)nc2N)cc1 | 2410 nM | – |
| N=C(N)NC(=O)c1nc(-c2cc3cc(Cl)ccc3o2)c(N)nc1N | 578 nM | – |
| N=C(N)NC(=O)c1nc(-c2ccoc2)c(N)nc1N | 499 nM | – |
| N=C(N)NC(=O)c1nc(Cl)c(N)nc1N [AMILORIDE] | – | IC50 (Plasma kallikrein): > 50000 nM; IC50 (Coagulation factor XI): > 50000 nM; IC50 (Prothrombin): > 20000 nM; IC50 [2]: > 50000 nM; IC50 [3]: > 20000 nM; IC50 (Coagulation factor X): > 50000 nM; inhibition (HT-1080): inactive; IC50 (Trypsin): > 50000 nM; IC50 (Plasminogen): > 20000 nM |
| COc1ncc(-c2nc(C(=O)NC(=N)N)c(N)nc2N)c(OC)n1 | 1630 nM | – |
| N#Cc1ccc2oc(-c3nc(C(=O)NC(=N)N)c(N)nc3N)cc2c1 | 904 nM | – |
| N=C(N)NC(=O)c1nc(-c2cc3cc(Br)ccc3o2)c(N)nc1N | 3650 nM | – |
| N=C(N)NC(=O)c1nc(-c2ccc3c(c2)CCO3)c(N)nc1N | 1480 nM | – |
| N=C(N)NC(=O)c1nc(-c2cc3cc(F)ccc3o2)c(N)nc1N | 587 nM | – |
| N=C(N)NC(=O)c1nc(-c2ccc(C(F)(F)F)cc2)c(N)nc1N | 3140 nM | – |
| N=C(N)NC(=O)c1nc(-c2cc3ccccc3s2)c(N)nc1N | 1410 nM | – |
| COc1ccc2oc(-c3nc(C(=O)NC(=N)N)c(N)nc3N)cc2c1 | 287 nM | – |
| Cc1ccc2oc(-c3nc(C(=O)NC(=N)N)c(N)nc3N)cc2c1 | 642 nM | – |
| COc1ccc(-c2nc(C(=O)NC(=N)N)c(N)nc2N)c(OC)n1 | 1210 nM | – |
| N=C(N)NC(=O)c1nc(-c2cc3ccccc3o2)c(N)nc1N | – | Activity (Rattus norvegicus [4]): Non-Toxic; Activity (Rattus norvegicus [5]): Non-Toxic; Activity (Rattus norvegicus [6]): Non-Toxic; IC50 (Trypsin): > 50000 nM |
| Cn1cc(-c2nc(C(=O)NC(=N)N)c(N)nc2N)cn1 | 482 nM | – |
| N=C(N)NC(=O)c1nc(-c2cccs2)c(N)nc1N | 1260 nM | – |
| COc1ncc(-c2nc(C(=O)NC(=N)N)c(N)nc2N)cn1 | 204 nM | Activity (Rattus norvegicus [5]): Non-Toxic; Activity (Rattus norvegicus [6]): Non-Toxic |
| N=C(N)NC(=O)c1nc(-c2ccc3occc3c2)c(N)nc1N | 350 nM | – |
| N=C(N)NC(=O)c1nc(-c2ccccc2)c(N)nc1N | 2500 nM | – |
| N=C(N)NC(=O)c1nc(-c2ccco2)c(N)nc1N | 776 nM | – |
